Measurements from the supplement of paper PMC10307832.

How the values were obtained:
Test in all cases: relative viability (nuclei count vs DMSO), 5 days (fraction); higher = more cells survive
Metformin + Alpelisib = compound: CN(C)C(=N)NC(=N)N [Metformin] + Cc1nc(NC(=O)N2CCC[C@H]2C(N)=O)sc1-c1ccnc(C(C)(C)C(F)(F)F)c1 [Alpelisib] (partner 2 µM)
Outline: (§1)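 Relative viability is defined as nuclei in treated wells over nuclei in vehicle wells. Duplicate plates were run and medians reported. Lung cancer cell lines in 1536-well plates were dosed by pin tool one day after seeding, with one drug or with a fixed anchor-drug dose plus five library-drug doses (not always all listed) in √10 steps, and nuclei were counted after 5 days.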

Metformin + Dasatinib = compound: CN(C)C(=N)NC(=N)N [Metformin] + Cc1nc(Nc2ncc(C(=O)Nc3c(C)cccc3Cl)s2)cc(N2CCN(CCO)CC2)n1 [Dasatinib] (partner 0.075 µM)
Outline: as §1

Apatinib + Foretinib = compound: N#CC1(c2ccc(NC(=O)c3cccnc3NCc3ccncc3)cc2)CCCC1 [Apatinib] + COc1cc2c(Oc3ccc(NC(=O)C4(C(=O)Nc5ccc(F)cc5)CC4)cc3F)ccnc2cc1OCCCN1CCOCC1 [Foretinib] (partner 0.25 µM)
Outline: as §1

Apatinib + Phenformin = compound: N#CC1(c2ccc(NC(=O)c3cccnc3NCc3ccncc3)cc2)CCCC1 [Apatinib] + N=C(N)NC(=N)NCCc1ccccc1 [Phenformin] (partner 250 µM)
Outline: as §1

Cell Line	relative viability (Metformin + Alpelisib; first compound 10 µM)	relative viability (Metformin + Alpelisib; first compound 31.62 µM)	relative viability (Metformin + Alpelisib; first compound 100 µM)	relative viability (Metformin + Alpelisib; first compound 316.23 µM)	relative viability (Metformin + Alpelisib; first compound 1000 µM)	relative viability (Metformin + Dasatinib; first compound 10 µM)	relative viability (Metformin + Dasatinib; first compound 31.62 µM)	relative viability (Metformin + Dasatinib; first compound 100 µM)	relative viability (Metformin + Dasatinib; first compound 316.23 µM)	relative viability (Metformin + Dasatinib; first compound 1000 µM)	relative viability (Apatinib + Foretinib; first compound 0.08 µM)	relative viability (Apatinib + Foretinib; first compound 0.253 µM)	relative viability (Apatinib + Foretinib; first compound 0.8 µM)	relative viability (Apatinib + Foretinib; first compound 2.53 µM)	relative viability (Apatinib + Foretinib; first compound 8 µM)	relative viability (Apatinib + Phenformin; first compound 0.08 µM)	relative viability (Apatinib + Phenformin; first compound 0.253 µM)	relative viability (Apatinib + Phenformin; first compound 2.53 µM)	relative viability (Apatinib + Phenformin; first compound 8 µM)	relative viability (Apatinib + Phenformin; first compound 0.8 µM)
PC-14	0.829	0.886	0.873	0.975	0.893	0.337	0.285	0.253	0.235	0.233	1.02	1.01	0.83	0.973	1.06	0.445	0.793	0.476	0.446	
HCC-78	0.408	0.537	0.57	0.469	0.598	0.405	0.469	0.459	0.549	0.327	0.6	0.513	0.523	0.536	0.535	0.644	0.607	0.605	0.618	0.691
NCI-H322M	0.83	0.901	0.845	0.787	0.779	0.326	0.318	0.31	0.305	0.245	1.02	0.857	0.944	0.984	0.88	0.831	0.76	0.814	0.784	0.778
NCI-H2023		0.558	0.627		0.506	0.599	0.618	0.703	0.493	0.662	0.963	0.751	0.849	1.02	0.794	0.384	0.481	0.329	0.301	0.404
NCI-H1651	1.21	1.13	1.14	1.08	1.15	0.757	0.349	0.346	0.361	0.464	0.925	0.897	0.765	0.577	0.495	0.319	0.322	0.288	0.316	0.309
HCC-15	0.921	1.07	1.03	0.659	0.919		0.625	0.581	0.556	0.584	1.1	0.866	1	0.999	0.834	0.472	0.512	0.39	0.371	0.435
NCI-H3122	0.524	0.598	0.649	0.625	0.668	0.509	0.879	0.897	0.666	0.896	0.995	0.891	0.947	1.06	0.918	0.351	0.361	0.271	0.298	0.319
LOU-NH91	0.762	0.709	0.806	0.634	0.642	0.576	0.491	0.498	0.538	0.499	0.979	0.891	0.836	0.891	0.829	0.651	0.73	0.659	0.665	0.631
LXF-289	0.909	0.97	0.963	0.943	1.01	0.186	0.188	0.188	0.137	0.236	0.915	1.02	0.984	0.954	0.905	0.543	0.527	0.496	0.468	0.519
NCI-H650	1.22	1.29	1.33	1.23	1.37	0.466	0.438	0.339	0.502	0.332	1.05	1.05	1.02	0.871	0.806	0.405	0.413	0.385	0.374	0.447
NCI-H1975	0.766	0.839	0.862	0.707	0.861	0.558	0.417	0.553	0.418	0.402	1.13	0.907	0.84	0.862	0.783	0.425	0.387	0.389	0.433	0.382
ChaGo-K-1						0.742	0.712	0.637	0.501	0.722	0.991	1	0.942	0.851	0.745	0.473	0.528	0.424	0.428	0.425
COR-L 105	1.14	1.33	1.07	0.963	0.802	0.452	0.542	0.44	0.33	0.348	1.36	1.11	1.23	0.768	0.849	0.523	0.598	0.45	0.337	0.426
A-427	1.07	1.14	1.02	1.05	1.03	0.53	0.722	0.676	0.74	0.695	1.22	0.828	1.03	1.01	0.598	0.393	0.387	0.3	0.234	0.254
NCI-H2087	1.09	0.858	1.05	0.982	0.963		0.933	0.891	0.676	0.693	1.22	1.13	0.91	1.02	0.899	0.499	0.46	0.339	0.374	0.424
NCI-H358	1.1	0.911	1.07	0.915	1.25	0.143	0.127	0.118	0.212	0.14	0.83	0.912	0.671	0.685	0.696	0.316	0.353	0.377	0.383	0.321
NCI-H647	1.07	1.05	1.08	1.15	1.21	0.226	0.231	0.567	0.221	0.212	1.14	1.39	1.16	1.13	0.977	0.561	0.64	0.544	0.319	0.427
